The values below come from publication PMC11957373 (Organic & biomolecular chemistry, 2024).

One experiment relates to HIVLAI. In words: Cell-based antiviral assay in MT-2 human-T-lymphoid cells exposed to HIVLAI. Also on record: species or system HIV-1. To be noted: for antiviral activity (in words): MT-2 cells exposed to HIVLAI.
Another experiment concerns the target HIV-1 protease (Human immunodeficiency virus type 1 group M subtype B, UniProt P04585). In words: HIV-1 protease inhibition, spectrofluorometric assay. The conditions noted are these: for Ki: HIV-1 protease. The experiment is classed as biochemical.
The mark [1] stands for this setting: at least 5 data points, standard error less than 7%.

`C=CCC1OC(C)CC1OC(=O)NC(Cc1ccccc1)C(O)CN(CC(C)C)S(=O)(=O)c1ccc(OC)cc1` [4a, (2S,3S,5R)-2-allyl-5-methyltetrahydrofuran-3-yl.((2S,3R)-3-hydroxy-4-((N-isobutyl-4-methoxyphenyl)sulfonamido)-1-phenylbutan-2-yl)carbamate]: in the experiment on HIVLAI, the “antiviral activity (in words)” value was “did not exhibit any appreciable antiviral activity”. For the same compound, on HIV-1 protease (setting [1]), the Ki is 400 pM.

In the case of `COC[C@@H]1O[C@H](C)C[C@@H]1OC(=O)N[C@@H](Cc1ccccc1)[C@H](O)CN(CC(C)C)S(=O)(=O)c1ccc(N)cc1` [4d, (2S,3S,5R)-2-(methoxymethyl)-5-methyltetrahydrofuran-3-yl((2S,3R)-4-((4-amino-N-isobutylphenyl)sulfonamido)-3-hydroxy-1-phenylbutan-2-yl)carbamate], the “fold reduction of protease inhibitory activity over compound 4c” value on HIV-1 protease (relative to compound 4c) is listed as “over 300 fold”.

As to `COC[C@H]1O[C@@H](C)C[C@H]1OC(=O)N[C@@H](Cc1ccccc1)[C@H](O)CN(CC(C)C)S(=O)(=O)c1ccc(OC)cc1` [4e, (2R,3R,5S)-2-(methoxymethyl)-5-methyltetrahydrofuran-3-yl.((2S,3R)-3-hydroxy-4-((N-isobutyl-4-methoxyphenyl)sulfonamido)-1-phenylbutan-2-yl)carbamate], the “fold reduction of protease inhibitory activity over compound 4c” value on HIV-1 protease (relative to compound 4c) is around 4 fold. `COC[C@H]1O[C@H](C)C[C@@H]1OC(=O)N[C@@H](Cc1ccccc1)[C@H](O)CN(CC(C)C)S(=O)(=O)c1ccc(OC)cc1` [4h, (2R,3S,5R)-2-(methoxymethyl)-5-methyltetrahydrofuran-3-yl((2S,3R)-3-hydroxy-4-((N-isobutyl-4-methoxyphenyl)sulfonamido)-1-phenylbutan-2-yl)carbamate] yielded a Ki at HIV-1 protease (value printed in pM) of 49 pM. For the same compound, the “fold improvement of enzyme affinity compared to compound 4c” value at HIV-1 protease (relative to compound 4c) was “over 5 fold”. For the compound `COc1ccc(S(=O)(=O)N(CC(C)C)C[C@@H](O)[C@H](Cc2ccccc2)NC(=O)O[C@H]2C[C@@H](C)O[C@H]2[C@@H]2CCCO2)cc1` [4k, (2S,2’S,3S,5R)-5-methyloctahydro-[2,2’-bifuran]-3-yl((2S,3R)-3-hydroxy-4-((N-isobutyl-4-methoxyphenyl)sulfonamido)-1-phenylbutan-2-yl)carbamate], the “antiviral activity (in words)” value in the experiment on HIVLAI is recorded as “did not exhibit any appreciable antiviral activity”. The compound further had a Ki at HIV-1 protease (setting [1]) of 310 pM. As for `COc1ccc(S(=O)(=O)N(CC(C)C)C[C@@H](O)[C@H](Cc2ccccc2)NC(=O)O[C@H]2C[C@@H](C)O[C@H]2[C@H]2CCCO2)cc1` [4l, (2S,2’R,3S,5R)-5-methyloctahydro-[2,2’-bifuran]-3-yl((2S,3R)-3-hydroxy-4-((N-isobutyl-4-methoxyphenyl)sulfonamido)-1-phenylbutan-2-yl)carbamate], in the experiment on HIVLAI, the “antiviral activity (in words)” value is given as “did not exhibit any appreciable antiviral activity”. Further, at HIV-1 protease (value printed in pM), the Ki is 44 pM.

`CC(C)CN(C[C@@H](O)[C@H](Cc1ccccc1)NC(=O)O[C@H]1CO[C@H]2OCC[C@H]21)S(=O)(=O)c1ccc(N)cc1` [Darunavir, darunavir, reference compound]: the EC50 in the experiment with HIVLAI (Human immunodeficiency virus 1, MT2) came out at 1.6 nM.
